Values quoted from earlier work, collected in patent US20030032669A1, “Pesticidal compositions and their use as protecting agents” (priority 2000, published 2003).

Tests used:
[1] = test system: adult grain weevils Sitophilus granarius; conditions: wheat treated with 1 μg/g; after 50 days
[2] = test system: larvae of German cockroach Blatella germanica; conditions: exposure to 100 ng/cm^2; after 3 weeks
[3] = aqueous solutions at 50° C.
[4] = alcohols, ketones and toluene

Question: What does the source list for `CCOC(=O)NCCOc1ccc(Oc2ccccc2)cc1` [fenoxycarb, ethyl 2-(4-phenoxyphenoxy)ethylcarbamate]?
Answer: reduction of population of adult grain weevils [1]: 100%; reduction of population of larvae of German cockroach [2]: 90%; stability to hydrolysis [3]: stable to hydrolysis; degradation in soil: rapidly degraded; solubility in organic solvents [4]: very soluble

Question: Which phyto-toxicity (plants) does the source give for `O=C(NC(=O)c1c(F)cccc1F)Nc1ccc(Oc2ccc(C(F)(F)F)cc2Cl)cc1F` [flufenoxuron, 1-[4-(2-chloro-trifluoro-p-tolyloxy)-2-fluorophenyl]-3-(2,6-difluorobenzoyl)urea] here?
Answer: no recorded phyto-toxicity

Question: And the degradation in soil?
Answer: rapidly degraded
